Measured values reported in publication PMC5648763, “Novel cycloneolignans from Vernicia fordii with inhibitory effects on over-activation of BV2 cells in vitro” (Scientific Reports, 2017).

How the values were obtained:
Assay type in all cases: cell-based, murine
[1] = system: NO production in LPS-induced BV2 cells; assay: Nitrite assay (Griess reaction): NO production in LPS-induced BV2 cells; conditions: Mus musculus, BV-2, LPS (100 ng/ml)-activated BV2 cells, 24 h, read-out: Inhibitory effect IC50 on NO production (compounds)
Procedure: (§1) Figure 5 Effect of compounds 1 and 2 on LPS-induced NO production in microglial cells. (A) BV-2 cells were treated with compounds 1 and 2 in the presence of LPS (100 ng/ml) for 24 h at the indicated concentrations. Cell viability was detected by MTT assay. (B) BV-2 cells were treated with compounds 1 and 2 in the presence of LPS (100 ng/ml) for 24 h. NO production was tested by Griess reaction. Data are expressed as means ± SEM (n = 3). ^#P < 0.05 compared with the control group, *P < 0.05 compared with LPS group.
(§2) The murine microglial cell line BV-2 was from Shanghai Institutes for Biological Sciences, Chinese Academy of Sciences (kindly provided by Prof. Y.Q. Guo, Nankai University, China). BV-2 cells were grown (37 °C and 5% CO2) in DMEM supplemented with 10% FBS, 100 U/ml penicillin and 100 μ g/ml streptomycin. Stock cells were passaged about three times/week and used within 8 passages.
The production of NO in LPS-induced BV2 cells was assayed by Griess reaction[9]–[12]. The cells (2 × 10^4 cells/well) were plated into 96-well plates and incubated with tested samples with 100 ng/mL LPS. Twenty-four hours later, Griess reagent was added into the supernatant at room temperature. And the plates were read on a plate reader at 540 nm after fifteen minutes.

[2] = Cell viability / cytotoxicity by MTT method; conditions: mouse
Procedure: as §1, §2
(§3) Viability of BV2 cells was tested by MTT method described in our previous work[9]–[12]. The cells (2 × 10^4 cells / well) were plated into 96-well plates and were pretreated with tested samples at different concentrations for 24 h. After the supernatant taken away, MTT (0.25 mg/ml) was added into the plate and incubated for 4 h at 37 °C. Finally, the formazan crystals were dissolved in DMSO and the absorbance of each well was recorded at 490 nm using a plate reader (Bio-Tek, Winooski, VT, USA).

[3] = system: BV2 cells; assay: Cell viability / cytotoxicity by MTT method
Procedure: as §1, §2, §3

[4] = system: IL-6 mRNA expression in BV2 cells; assay: LPS-induced IL-6 mRNA expression in BV-2 cells (Real-time PCR); conditions: 10 μM, pretreated 2 h, then LPS (100 ng/mL) 4 h, qRT-PCR
Procedure: (§4) Figure 7 Effects of compounds 1, 1a, 1b, 2, 2a and 2b on LPS-induced IL-6 and IL-1β mRNA expression in microglial cells. BV-2 microglial cells were pretreated with compounds1, 2, 1a, 1b, 2a and 2b (10 μM) for 2 h and then stimulated with LPS (100 ng/mL). Total RNA was isolated 4 h after LPS treatment, the mRNA levels of IL-6 and IL-1β were measured by qRT-PCR. Data are expressed as means ± SEM (n = 3). ^#P < 0.05 compared with the control group, *P < 0.05 compared with LPS group. Mino stands for minocycline.
as §2
(§5) BV2 cells (4 × 10^5 cells/ml) were plated into 6-well plates and were pretreated with each sample for 2 h and then induced by LPS for 4 h. After that the total RNA was isolated using Trizol and converted to cDNA. CFX ConnectTM real-time PCR detection system (Bio-Rad, Hercules, CA, USA) was used for the experiment. The level of GAPDH gene was used for standardization.

[5] = system: IL-1β mRNA expression in BV2 cells; assay: LPS-induced IL-1β mRNA expression in BV-2 cells (Real-time PCR); conditions: 10 μM, pretreated 2 h, then LPS (100 ng/mL) 4 h, qRT-PCR
Procedure: as §4, §2, §5

Row | IC50 [1] | Compound | IC50 at 24 h [2] | Cytotoxicity at the effective concentrations [3] | Effect on LPS-induced IL-6 mRNA expression [4] | Effect on LPS-induced IL-1β mRNA expression [5]
1 | 17.4 ± 0.87 µM | COC1CC2(O)OCC(c3cc(O)c(O)cc31)C2c1ccc(O)c(O)c1 (racemic) [Compound 2, (±) methoxylverniciasin A] | > 100 µM | without obvious cytotoxicities | did not show inhibitory effect | did not show inhibitory effect
2 | 1.46 ± 0.91 µM | Oc1ccc(C2C3COC2(O)CC(O)c2cc(O)c(O)cc23)cc1O (stereo not shown) [Compound 1, Verniciasin A] | > 100 µM | without obvious cytotoxicities | suppressed | suppressed
3 | – | Oc1ccc(C2C3COC2(O)CC(O)c2cc(O)c(O)cc23)cc1O (stereo not shown) [Compound 1a, 7R, 8R, 7′R, 9′S-verniciasin A] | – | – | significant inhibitory action | significant inhibitory action
4 | – | Oc1ccc(C2C3COC2(O)CC(O)c2cc(O)c(O)cc23)cc1O (stereo not shown) [Compound 1b, 7S, 8S, 7′S, 9′R- verniciasin A] | – | – | did not display inhibitory activity | did not display inhibitory activity
5 | – | COC1CC2(O)OCC(c3cc(O)c(O)cc31)C2c1ccc(O)c(O)c1 (stereo not shown) [Compound 2a, 7R, 8R, 7′R, 9′S−7′-methoxylverniciasin A] | – | – | moderate inhibitory effect | moderate inhibitory effect
